Experimental data as given in US9675568B2, “Pharmaceutical compositions” (Symrise AG, priority 2012, dated 2017).

System: cell line of human leucemic granulocytes (PMN)
Experiment: Respiratory burst: zymosan-triggered release of superoxide anions (ROS) measured with Luminol, with cell numbers
Assay type: cell-based
Conditions: for Cell numbers / Released ROS: compared with the standard (=100), average of triplicate determination; for Released ROS: zymosan-triggered, Luminol
Description: In the course of cutaneous inflammations, leukocytes, such as, for example, the polymorphonuclear neutrophilic granulocytes (PMN), are stimulated by peptides, such as, for example, cytokines, to emit messenger substances, such as, for example, leucotriene, which are released from activated or necrotic cells in the dermis. These activated PMNs release not only proinflammatory cytokins, leucotrienes and proteases, but also ROS, such as, for example, superoxides and hypochlorite anions, which have the task of destroying pathogenic microbes or fungi which have penetrated it. This activity of the PMNs during inflammation is known as respiratory burst and can lead to additional tissue damage. To investigate to what extent the amide is able to prevent or reduce respiratory burst, a cell line of human leucemic granulocytes of these PMNS was incubated together with the test substances at 37° C. from 5% by volume of CO2. After the respiratory burst had been triggered by adding a yeast extract (zymosan) to the cell solution, the release of superoxide anions was determined by means of their reaction with Luminol. The values given are the cell numbers and the amount of released ROS in relative percentages compared with the standard as an average value of a measurement series with triplicate determination.

COc1ccc(NC(=O)C2CC(C)CCC2C(C)C)cc1 (centres unmarked) [Menthane carboxylic acid-N-(4-methoxy-phenyl)-amide]
Cell numbers (0.001 % b.w. active): 104 ± 1 relative percentages | Released ROS (0.001 % b.w. active): 37 ± 25 relative percentages | Cell numbers (0.01 % b.w. active): 94 ± 3 relative percentages | Released ROS (0.01 % b.w. active): 9 ± 4 relative percentages | Cell numbers (0.1 % b.w. active): 93 ± 1 relative percentages | Released ROS (0.1 % b.w. active): 8 ± 4 relative percentages | Damage to the granulocytes (summary in words of Table 1): without damaging the granulocytes | Effect on the respiratory burst of human granulocytes (summary in words of Table 1): strong inhibiting effect
